Results reported in US20040248928A1, “Pharmaceutical composition comprising an adenosine A1/A2 agonist and a sodium hydrogen exchanger inhibitor” (Adventis Pharmaceuticals Inc., priority 2001, published 2004).
Marks after values point to notes of the source that are not given here.

How the values were obtained:
open-chest rabbit hearts [1] = test: Infarct size, 45 min ischemia model (open-chest rabbit, TTC staining); type: in vivo, New Zealand White rabbits; details: 45 min ischemia + 3 h reperfusion; for Infarct size: (E)=5 min prior to ischemia, (L)=at reperfusion, (E&L)=from 5 min prior to ischemia for 120 min, mean ± S.E.M.; for Infarct size as a percentage of the risk zone: control 55.8±3.9%
Method: (§1) New Zealand White rabbits of either sex weighing 2.0-2.5 kg were anesthetized with pentobarbital (30 mg/kg iv), intubated through a tracheotomy, and ventilated with 100% oxygen via a positive pressure respirator (MD industries, Mobile, Ala.). The ventilation rate and tidal volume were adjusted to maintain arterial blood gases in the physiological range. Body temperature was maintained at 38-39° C. A catheter was inserted into the left carotid artery for monitoring blood pressure. Another catheter was inserted into the right jugular vein for drug infusion. A left thoracotomy was performed in the fourth intercostal space, and the pericardium was opened to expose the heart. A 2-0 silk suture on a curved taper needle was passed through the myocardium around a prominent branch of the left coronary artery. The ends of the suture were passed through a small piece of soft vinyl tubing to form a snare. Ischemia was induced by pulling the snare and then fixing it by clamping the tube with a small hemostat. Ischemia was confirmed by appearance of cyanosis. Reperfusion was achieved by releasing the snare and was confirmed by visible hyperemia on the ventricular surface. After 3 h of reperfusion, the rabbit was given an overdose of pentobarbital and the heart was quickly removed from the chest, mounted on a Langendorff apparatus, and perfused with saline to wash out blood. Then the coronary artery was reoccluded, and 1 ml of 0.25% fluorescent polymer microspheres (2-9 μm diameter, Duke Scientific Corp, Palo Alto, Calif.) were infused into the perfusate to demarcate the risk zone as the area of tissue without fluorescence. The heart was weighed, frozen, and cut into 2.5-mm-thick slices. The slices were incubated in 1% triphenyltetrazolium chloride (TTC) in sodium phosphate buffer at 37° C. for 20 min. The slices were immersed in 10% formalin to enhance the contrast between stained (viable) and unstained (necrotic) tissue and then squeezed between glass plates spaced exactly 2 mm apart. The myocardium at risk was identified by illuminating the slices with ultraviolet light. The infarcted and risk zone areas were traced on a clear acetate sheet and quantified with planimetry by an investigator blinded to the treatment. The areas were converted into volumes by multiplying the areas by slice thickness. Infarct size is expressed as a percentage of the risk zone. Seven groups of rabbits were subjected to 45 min of regional ischemia followed by 3 h of reperfusion (FIG. 1). The PC was induced by a 5 min of regional ischemia followed by a 10 min reperfusion prior to the sustained ischemia. All groups receiving AMP 579 received a bolus injection of 30 μg/kg iv followed by an infusion of 3 μg/kg/min for 70 min. In PC+AMP (L) group, the hearts experienced PC and were treated with AMP 579 at reperfusion for 70 min. AMP 579 alone was given at reperfusion for 70 min in AMP (L) group. The hearts in AMP (E&L) group were treated with AMP 579 starting 5 min before ischemia for 120 min. An intravenous bolus injection of cariporide was given either 5 min prior to ischemia (Cariporide (E)) or 5 min before reperfusion (Cariporide (L)). All data are expressed as means±S.E.M. One-way ANOVA combined with Scheffé's post hoc test was used to test for differences in baseline hemodynamics and infarct size among groups. ANOVA with replication was used to test for changes in hemodynamics during an experiment within each group. A p value of less than 0.05 was considered to be significant.

open-chest rabbit hearts [2] = test: Infarct size, 60 min ischemia model (open-chest rabbit, TTC staining); type: in vivo, New Zealand White rabbits; details: 60 min ischemia + 3 h reperfusion; for Infarct size: (E)=5 min prior to ischemia, (L)=at reperfusion, AMP given at reperfusion, mean ± S.E.M.
Method: as §1, with “Pretreatment with cariporide was so potent that any additional protection would probably be undetectable with a 45-minute ischemic insult. We therefore chose a 60 min period” for “Seven groups”, “index” for “rabbits were subjected to 45 min of regional ischemia followed by 3 h of reperfusion (FIG. 1). The PC was induced by a 5 min of regional ischemia followed by a 10 min reperfusion prior to the sustained ischemia. All groups receiving AMP 579 received a bolus injection of 30 μg/kg iv followed by an infusion of 3 μg/kg/min for 70 min. In PC+AMP (L) group, the hearts experienced PC and were treated with AMP 579 at reperfusion for 70 min. AMP 579 alone was given at reperfusion for 70 min in AMP (L) group. The hearts in AMP (E&L) group were treated with AMP 579 starting 5 min before”, “these studies. […]” for “120 min. An intravenous bolus injection of cariporide was given either 5 min prior to ischemia (Cariporide (E)) or 5 min before reperfusion (Cariporide (L)).”, “ANOVA with replication was used to test for changes in hemodynamics during an experiment within each group. A p value of less than 0.05 was considered to be significant.” left out

Structure (SMILES) | Infarct size (open-chest rabbit hearts [1]; listed as Cariporide (E)) | Infarct size (open-chest rabbit hearts [1]; listed as Cariporide (L)) [cm^3] | Infarct size as a percentage of the risk zone (open-chest rabbit hearts [1]; cariporide iv bolus 5 min prior to ischemia (pretreatment)) [%] | Infarct size as a percentage of the risk zone (open-chest rabbit hearts [1]; cariporide iv bolus just prior to reperfusion) [%] | Infarct size (open-chest rabbit hearts [2]) | Infarct size as a percentage of the risk zone (open-chest rabbit hearts [2]; cariporide 0.5 mg/kg bolus 5 min prior to ischemia, control 66.0±4.9%) [%] | Infarct size (open-chest rabbit hearts [1]; listed as AMP (E&L)) | Infarct size (open-chest rabbit hearts [1]; listed as AMP (L)) | Infarct size as a percentage of the risk zone (open-chest rabbit hearts [1]; AMP 579 alone, 30 μg/kg iv bolus + 3 μg/kg/min for 70 min starting at reperfusion) [%] | Infarct size as a percentage of the risk zone (open-chest rabbit hearts [2]; AMP 579 alone at reperfusion (30 μg/kg + 3 μg/kg/min, 70 min), not significant vs control 66.0±4.9%) [%]
CC(C)c1ccc(C(=O)N=C(N)N)cc1S(C)(=O)=O [Cariporide, 4-isopropyl-3-methylsulfonylbenzoylguanidine methane sulfonate] | 0.13 ± 0.07* cm^3 | 0.60 ± 0.08 | 8.5±3.7 | 53.4±3.5 | 0.47 ± 0.08* cm^3 | 41.5±7.7 | – | – | – | –
CCNC(=O)[C@H]1CC(n2cnc3c(N[C@H](CC)Cc4sccc4Cl)ccnc32)[C@H](O)[C@@H]1O (relative stereo) [AMP 579, [1S-[1α,2β,3β,4α(S*)]]-4-[7-[[3-chloro-2-thienyl)methyl]propyl]amino]-3H-imidazo[4,5-b]pyridin-3-yl]-N-ethyl-2,3-dihydroxycyclopentanecarboxamide] | – | – | – | – | 0.59 ± 0.09 cm^3 | – | 0.26 ± 0.05* cm^3 | 0.37 ± 0.03* cm^3 | 32.1±1.8 | 45.3±5.4
